Assay results published in patent US8207136B2, “Nucleoside compounds and methods of use thereof” (The Board of Trustees of the University of Illinois, priority 2005, dated 2012).

What was measured:
[1] = system: leukemia cell lines CEM, HL-60, NB4 and U937; experiment: TMRE staining and flow cytometry of leukemia cells; type: cell-based; details: 5 μM, 24 hours
Method: FIG. 7. ARC induces mitochondrial injury in leukemia cells. Different leukemia cells were either treated with DMSO (gray) or 5 μM ARC (white) for 24 hours, stained with TMRE (tetramethyl rhodamine ethyl ester) and subjected to flow cytometry. CEM cells are shown in panel (A), HL-60 in panel (B), NB4 in panel (C) and U937 in panel (D). The shift in the peak from right (DMSO; gray) to left (ARC-treated; white) is due to the lower intake of the dye caused by the loss in mitochondrial potential.
In order to further probe the mechanism of ARC-induced apoptosis, whether or not ARC causes mitochondrial injury was investigated. Permeabilization of mitochondria, followed by cytochrome c release has previously been observed for transcriptional inhibitor flavopiridol. For this analysis, leukemia cell lines CEM, HL-60, NB4 and U937 were treated with either DMSO or ARC. […] It is well known that the Bcl2 family members (eg., Bcl-2, Bcl-XL, Mcl-1) protect the mitochondrial integrity, thereby acting in an anti-apoptotic manner. It is possible that ARC modulates the expression of one or more of these proteins to cause mitochondrial injury.

p53 = experiment: Gel shift assay with nuclear extracts and p53 consensus probe; type: cell-based, human
Method: Either purified p53 protein or nuclear extracts were used in the gel shift assays. For preparation of nuclear extracts, cells treated either with DMSO or different agents (doxorubicin, ARC and actinomycin D) were harvested 24 hours later and lysed in hypotonic buffer (10 mM HEPES pH 7.9, 1.5 mM MgCl2, 10 mM KCl, 0.2 mM PMSF, 0.5 mM DTT, 1 mM Na3VO4, 1 mM NaF, 1 mM Aprotinin and 1 mM Leupeptin), nuclei pelleted and treated with high-salt buffer (20 mM HEPES pH 7.9, 20% (v/v) glycerol, 1.5 mM MgCl2, 0.5 M KCl, 0.2 mM EDTA, 0.2 mM PMSF, 0.5 mM DTT, 1 mM Na3VO4, 1 mM NaF, 1 mM Aprotinin and 1 mM Leupeptin). Nuclear extracts (10 μg) or purified p53 protein (100 ng) were incubated with 0.5 ng of p53 consensus double-stranded oligos (5′-TACAGAACATGTCTAAGCATGCTGGGGACT-3′; Santa Cruz Biotechnology) that were labeled with [γ^32P]ATP. As a control, anti-p53 antibody (PAb421, EMD Biosciences) was used to supershift the p53/DNA complex. The reaction mixtures were resolved on a 4% acrylamide DNA-retardation gel, dried and exposed to X-ray film in the presence of intensifying screen.
Although the effects of ARC were p53-independent, ARC did affect some properties of p53. […] This is in contrast to actinomycin D, which is known to enhance the DNA binding ability of p53 [22]. […] To determine if ARC retains p53 in the cytoplasm, which may lead to decreased binding in the gel shift assays, p53 levels in nuclear lysates were examined.

[2] = system: wild type MRC-5 human fetal lung fibroblasts; experiment: Apoptosis and cell cycle assays in wild type MRC-5 fibroblasts; type: cell-based; details: for cell cycle profile: 20 μM
Method: Immunoblotting was performed as described with antibodies specific for p53 (sc-126 HRP; Santa Cruz), hdm2 (sc-965; Santa Cruz), p21 (556431; BD Pharmingen), Sp1 (sc-59; Santa Cruz), survivin (sc-10811; Santa Cruz), phospho RNA polymerase II (4735; Cell Signaling), total RNA polymerase II (8WG16; a gift from Dr. Schlegel, University of Illinois at Chicago), α-tubulin (T9026; Sigma), cleaved caspase-3 (9664; Cell Signaling), caspase-9 (9502; Cell Signaling) and β-actin (A5441; Sigma) antibodies.
Apoptosis was detected either by DAPI (4′,6-diamidino-2-phenylindole) staining or by Flow Cytometry after PI (Propidium Iodide) staining. For DAPI staining, all treatments (DMSO or ARC) were done in triplicates in 6-well plates and cells were stained with DAPI and visualized by fluorescent microscopy. Four random fields for each sample were photographed and at least 500 cells per field were counted to estimate apoptosis. The data is represented as mean±Standard deviation (sd).
(§1) For Flow Cytometry, cells were fixed in 70% ethanol and stored at −20° C. until further analysis. Equal numbers of fixed cells were then stained with PI solution (0.1% Triton X-100, 0.2 mg/ml DNase free RNase, 0.02 mg/ml propidium iodide) made in PBS for 15 min at 37° C. and analyzed by a flow cytometer.
The ability of ARC to induce apoptosis in wild type and SV40-transformed MRC-5 human fetal lung fibroblasts was evaluated. Twenty-four hours after treatment with ARC, transformed fibroblasts underwent robust apoptosis (around 50% and 70%, respectively, with 5 and 10 μM of ARC) (FIGS. 4A and B). […] The transformed cell types may be more dependent on the survivin levels for their survival than their wild type counterparts and thus the reduction in these levels could be lethal to these cells.
Moreover, the effect of 20 μM ARC treatment on wild type fibroblasts was analyzed and little change was found in the cell cycle profile after 24 hours (data not shown) and the cells undergo G2-arrest after 48 hours (FIG. 4D).

[3] = system: LIM1215 colon cancer cells; experiment: Apoptosis by PI staining and flow cytometry in LIM1215 cells; type: cell-based, human
Method: as §1
In order to evaluate the extent to which ARC induces apoptosis relative to that of the other known nucleoside analog DRB, LIM1215 colon cancer cells were treated with either ARC or DRB for 48 hours.

P-TEFb (Cdk9/Cyclin T1) = target: T1, P-TEFb (Cdk9/Cyclin T1) (Homo sapiens, UniProt P50750); experiment: P-TEFb kinase assay with p53 as substrate; type: biochemical; details: different concentrations, 30° C., 30 min
T1 construct: gift from Dr. Nekhai (Howard University)
T1 sequence (P50750 whole entry, species assumed): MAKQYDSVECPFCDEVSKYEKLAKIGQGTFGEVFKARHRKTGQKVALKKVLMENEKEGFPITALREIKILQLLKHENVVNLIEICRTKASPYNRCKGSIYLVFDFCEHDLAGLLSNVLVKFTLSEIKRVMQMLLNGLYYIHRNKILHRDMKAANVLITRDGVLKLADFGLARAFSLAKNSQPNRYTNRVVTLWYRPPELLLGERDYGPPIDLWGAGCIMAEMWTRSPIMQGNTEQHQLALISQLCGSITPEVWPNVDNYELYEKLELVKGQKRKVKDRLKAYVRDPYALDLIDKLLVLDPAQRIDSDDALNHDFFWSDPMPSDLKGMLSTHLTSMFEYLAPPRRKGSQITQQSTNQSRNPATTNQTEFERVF
T1 sequence (O60563 whole entry partner, species assumed): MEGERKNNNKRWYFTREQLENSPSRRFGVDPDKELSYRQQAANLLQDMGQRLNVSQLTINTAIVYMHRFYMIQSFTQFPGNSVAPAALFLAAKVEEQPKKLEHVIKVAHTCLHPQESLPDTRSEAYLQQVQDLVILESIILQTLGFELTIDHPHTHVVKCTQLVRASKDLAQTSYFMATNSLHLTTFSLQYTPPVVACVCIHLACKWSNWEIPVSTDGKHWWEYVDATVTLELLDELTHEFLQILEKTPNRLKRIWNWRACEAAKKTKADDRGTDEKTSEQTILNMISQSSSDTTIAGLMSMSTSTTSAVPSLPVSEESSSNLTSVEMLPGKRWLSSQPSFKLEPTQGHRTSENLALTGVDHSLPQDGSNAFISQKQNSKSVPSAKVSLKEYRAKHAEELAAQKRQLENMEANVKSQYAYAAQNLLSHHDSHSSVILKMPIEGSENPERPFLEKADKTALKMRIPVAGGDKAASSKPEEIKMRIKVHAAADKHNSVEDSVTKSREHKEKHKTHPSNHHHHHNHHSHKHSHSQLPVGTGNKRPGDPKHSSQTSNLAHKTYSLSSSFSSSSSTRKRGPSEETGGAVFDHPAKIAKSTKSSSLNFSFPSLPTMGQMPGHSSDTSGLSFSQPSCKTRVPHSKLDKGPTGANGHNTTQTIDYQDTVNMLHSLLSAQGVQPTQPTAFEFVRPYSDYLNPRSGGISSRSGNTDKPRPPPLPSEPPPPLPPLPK
Method: For P-TEFb kinase assays with p53 as a substrate, purified p53 protein (Protein One) was used. Twenty-five nanograms of p53 protein along with [γ^32P]ATP was used in reactions either in the presence or absence of P-TEFb, with or without the addition of ARC. The reaction was carried out at 30° C. for 30 min. The samples were resolved on an SDS-PAGE and transferred on to a PVDF membrane and exposed to X-ray film to detect phosphorylation of p53.
In order to evaluate this activity, an in vitro kinase assay was performed with purified p53 protein and P-TEFb in the presence of different concentrations of ARC.

For `NNc1c(C(N)=O)c2c(N)ncnc2n1[C@@H]1O[C@H](CO)[C@@H](O)[C@H]1O` [ARC, 4-amino-6-hydrazino-7-beta-D-ribofuranosyl-7H-pyrrolo[2,3-d]-pyrimidine-5-carboxamide], which “mitochondrial potential (TMRE)” value [1] is on record?
The value was “mitochondrial depolarization”.

What about the “DNA binding ability of p53, agent alone” value (p53; MCF-7 nuclear extracts) of the same compound?
The value was “did not influence the DNA binding ability of p53”.

What about the “doxorubicin-induced DNA binding ability of p53” value (p53; nuclear extracts from HCT-116 and MCF-7 cells, with doxorubicin) of the same compound?
The value was “inhibited the doxorubicin-induced DNA binding ability of p53”.

And the cell cycle profile ([2]; 24 hours)?
The cell cycle profile was “little change”.

What about the cell cycle profile ([2]; 48 hours) of the same compound?
Its cell cycle profile is “G2-arrest”.

What about the cell killing ([2]; 10 or 20 μM, 24 hours) of the same compound?
The cell killing was “not susceptible to ARC-mediated cell killing”.

And the “apoptosis (PI staining, flow cytometry)” value ([3]; 5 μM, 48 hours)?
Its value is 37.8%.

What about the “efficiency in inducing apoptosis relative to DRB” value ([3]; LIM1215 cells (FIG. 5F)) of the same compound?
The value was greater than 10 fold.

What about the “phosphorylation of p53 by P-TEFb” value (P-TEFb (Cdk9/Cyclin T1)) of the same compound?
The value was “decreased in a dose-dependent manner”.
